The test system of one experiment is Aβ42 secretion. In words: Aβ42 secretion by H4 cells expressing APP695, sandwich ELISA. The class given is cell-based, human. As to conditions: medium collected at 24 or 48 hours, several numbers = independent sets of assays; for IC50: about 1 μM to about 100 μM; for inhibition at 100 µM / % Inhibition of Aβ42 Secretion @ 100 μM: test compound 100 μM vs DMSO control. As to the method: (§1) The present invention provides compositions and methods for lowering Aβ42 levels. To test whether compounds and compositions are capable of modulating Aβ levels in cultured cells, sandwich enzyme-linked immunosorbent assays (ELISAs) are employed to measure secreted Aβ (Aβ42 and/or Aβ40 levels). In this example, H4 cells expressing wide type APP695 are seeded at 200,000 cells per well in 6 well plates, and incubated at 37° C. with 5% CO2 overnight. Cells are treated with 1.5 ml medium containing vehicle (DMSO) or a test compound at 1.25 μM, 2.5 μM, 5.0 μM and 10.0 μM (as well as other concentration if desirable) for 24 hours or 48 hours. The supernatant from treated cells is collected into eppendorf tubes and frozen at −80° C. for future analysis.
(§2) The amyloid peptide standard is reconstituted and frozen samples are thawed. The samples and standards are diluted with appropriate diluents and the plate is washed 4 times with Working Wash Buffer and patted dry on a paper towel. 100 μL per well of peptide standards, controls, and dilutions of samples to be analyzed is added. The plate is incubated for 2 hours while shaking on an orbital plate shaker at RT. The plate is then washed 4 times with Working Wash Buffer and patted dry on a paper towel. Detection Antibody Solution is poured into a reservoir and 100 μL/well of Detection Antibody Solution is immediately added to the plate. The plate is incubated at RT for 2 hours while shaking and then washed four times with Working Wash Buffer and patted dry on a paper towel. Secondary Antibody Solution is then poured into a reservoir and 100 μL/well of Secondary Antibody Solution is immediately added to the plate. The plate is incubated at RT for 2 hours with shaking, washed 5 times with Working Wash Buffer, and patted dry on a paper towel.
(§3) 100 μL of stabilized chromogen is added to each well and the liquid in the wells begins to turn blue. The plate is incubated for 30 minutes at room temperature and in the dark. 100 μL of stop solution is added to each well and the plate is tapped gently to mix resulting in a change of solution color from blue to yellow. The absorbance of each well is read at 450 nm having blanked the plate reader against a chromogen blank composed of 100 μL each of stabilized chromogen and stop solution. The plate is read within 2 hours of adding the stop solution. The absorbance of the standards is plotted against the standard concentration and the concentrations of unknown samples and controls are calculated.
(§4) The present invention provides compositions and methods for lowering Aβ42 levels. To test whether compounds and compositions are capable of modulating Aβ levels, sandwich enzyme-linked immunosorbent assays (ELISAs) is employed to measure secreted Aβ42 and/or Aβ40 levels. In this example, H4 cells expressing wide type APP695 are seeded at 200,000 cells per well in 6 well plates, and incubated at 37° C. with 5% CO2 overnight. Cells are treated with 1.5 mL medium containing vehicle (DMSO) or a test compound at 1.25 μM, 2.5 μM, 5.0 μM and 10.0 μM concentration for 24 hours or 48 hours. The supernatant from treated cells is collected into eppendorf tubes and frozen at −80° C. for future analysis.
(§5) 130 μL per well of samples, standards, and blanks is added to a 96-well polypropylene plate. […] of samples, standards, and blanks from the polypropylene plate is added to the antibody-coated plates. The strip-holder with the appropriate number of strips is applied to the antibody-coated plates and the strips are covered with an adhesive sealer. The plate is then incubated 3 hours at room temperature while shaking on an orbital plate shaker.
(§6) The first antibody solution is prepared with Conjugate Diluent 1 at 1:100 ratio. Each well of the antibody-coated plates is washed 5 times with 400 μL washing solution and 100 μL of the prepared first antibody solution is added to each well. […]
(ELISA stands for enzyme-linked immunosorbent assay.)

The test system of another experiment is Aβ40 secretion. In words: Aβ40 secretion by H4 cells expressing APP695, sandwich ELISA. As to conditions: medium collected at 24 or 48 hours, several numbers = independent sets of assays; for IC50: about 1 μM to about 100 μM; for inhibition at 100 µM / % Inhibition of Aβ40 Secretion @ 100 μM: test compound 100 μM vs DMSO control. It is filed as cell-based, human. The procedure:
as §1, §2, §3, §4, §5, §6

We go through 18 molecules from patent US8217073B2, “Pyrrole derivatives as therapeutic compounds” (Myrexis, Inc., priority 2005, dated 2012).

A word on the IC50: it is the concentration that gives 50% inhibition. A higher IC50 goes with lower potency. A word on the inhibition: it is the change of the read-out against control, counted positive when it falls.

Where “and” joins values, the source holds several entries; their conditions need not be identical. Identical values can stand only once.

With `O=C(O)CCCc1ccc(-n2c(-c3ccccc3)cc(-c3ccccc3)c2C2CCCCC2)cc1` [Compound 29, 4-[4-(2-Cyclohexyl-3,5-diphenyl-pyrrol-1-yl)-phenyl]-butyric acid], in the experiment on Aβ42 secretion (Homo sapiens), the IC50 turned out to be 14 µM and the inhibition at 100 µM worked out at 102%. In the experiment with Aβ40 secretion (Homo sapiens), the IC50 stood at 33 µM and the inhibition at 100 µM was found to be 103%.

As for `Cc1c(-c2ccccc2)cc(-c2ccccc2)n1-c1cccc(OCC(=O)O)c1` [Compound 26, [3-(2-Methyl-3,5-diphenyl-pyrrol-1-yl)-phenoxy]-acetic acid], in the experiment with Aβ42 secretion (Homo sapiens), the IC50 was found to be 21 µM and the inhibition at 100 µM came to 147%. Besides, in the experiment on Aβ40 secretion (Homo sapiens), the IC50 was found to be 42 µM and the inhibition at 100 µM is 94%.

`Cc1c(-c2ccccc2)cc(-c2ccc(Cl)c(Cl)c2)n1-c1cccc(CCC(=O)O)c1` [Compound 18, 3-{3-[5-(3,4-Dichloro-phenyl)-2-methyl-3-phenyl-pyrrol-1-yl]-phenyl}-propionic acid]: in the experiment with Aβ42 secretion (Homo sapiens), the IC50 was 10 µM and the inhibition at 100 µM worked out at 94%. Further, in the experiment on Aβ40 secretion (Homo sapiens), the IC50 was greater than 100 µM and the inhibition at 100 µM is 41%.

For the molecule `O=C(O)c1cccc(-n2cc(-c3ccccc3)cc2-c2ccccc2)c1` [Compound 6, 3-(2,4-Diphenyl-pyrrol-1-yl)-benzoic acid], the IC50 in the experiment with Aβ42 secretion (Homo sapiens) is 30 µM; in the experiment on Aβ40 secretion (Homo sapiens), greater than 100 µM. The inhibition at 100 µM was found to be 74% in the experiment on Aβ42 secretion (Homo sapiens) and 32% in the experiment on Aβ40 secretion (Homo sapiens).

For `CC(C)(C)Cc1c(-c2ccccc2)cc(-c2ccccc2)n1-c1ccc(CCCC(=O)O)cc1` [Compound 38, 4-{4-[2-(2,2-Dimethyl-propyl)-3,5-diphenyl-pyrrol-1-yl]-phenyl}-butyric acid], the IC50 with Aβ42 secretion (Homo sapiens) stood at 10 µM; in the experiment on Aβ42 secretion, 7 µM; with Aβ40 secretion (Homo sapiens), 63 µM; in the experiment on Aβ40 secretion, 37 µM. Moreover, the inhibition at 100 µM in the experiment with Aβ42 secretion (Homo sapiens) came out at 94%; in the experiment with Aβ40 secretion (Homo sapiens) it was 88%. The “% Inhibition of Aβ42 Secretion @ 100 μM” value in the experiment with Aβ42 secretion turned out to be 101%. Also, the “% Inhibition of Aβ40 Secretion @ 100 μM” value in the experiment on Aβ40 secretion is given as 104%.

For the molecule `Cc1c(-c2ccccc2)cc(-c2ccccc2)n1-c1ccc(OCCC(=O)O)cc1` [Compound 28, 3-[4-(2-Methyl-3,5-diphenyl-pyrrol-1-yl)-phenoxy]-propionic acid], in the experiment with Aβ42 secretion (Homo sapiens), the midpoint of inhibition, the IC50, lay at 80 µM and the inhibition at 100 µM was 55%. Besides, in the experiment on Aβ40 secretion (Homo sapiens), the IC50 was greater than 32 µM and the inhibition at 100 µM came to 32%.

For `Cc1c(-c2ccccc2)cc(-c2ccc(Cl)c(Cl)c2)n1-c1ccc(CCCC(=O)O)cc1` [Compound 19, 4-{4-[5-(3,4-Dichloro-phenyl)-2-methyl-3-phenyl-pyrrol-1-yl]-phenyl}-butyric acid], the inhibition at 100 µM with Aβ42 secretion (Homo sapiens) is 95%. The “% Inhibition of Aβ42 Secretion @ 100 μM” value in the experiment on Aβ42 secretion worked out at 109%. Further, the IC50 in the experiment on Aβ40 secretion (Homo sapiens) is greater than 100 µM; in the experiment with Aβ40 secretion it was 65 µM. The “% Inhibition of Aβ40 Secretion @ 100 μM” value in the experiment with Aβ40 secretion is 42% and 78%.

Take `CC(C)(C)Cc1c(-c2ccccc2)cc(-c2ccccc2)n1-c1cccc(C(=O)O)c1` [Compound 36, 3-[2-(2,2-Dimethyl-propyl)-3,5-diphenyl-pyrrol-1-yl]-benzoic acid]: in the experiment with Aβ42 secretion (Homo sapiens), the IC50 came out at 8 µM and the inhibition at 100 µM worked out at 99%. Further, in the experiment on Aβ42 secretion, half-maximal inhibition (IC50) was put at 7 µM and the “% Inhibition of Aβ42 Secretion @ 100 μM” value is 101%. In addition, in the experiment on Aβ40 secretion (Homo sapiens), 29 µM corresponded to half-maximal inhibition (IC50) and the inhibition at 100 µM stood at 103%. Besides, in the experiment with Aβ40 secretion, the IC50 is 19 µM and the “% Inhibition of Aβ40 Secretion @ 100 μM” value was 96%.

Regarding `Cc1c(-c2ccccc2)cc(-c2ccccc2)n1-c1ccc(CCCC(=O)O)cc1` [Compound 1, 4-[4-(2-Methyl-3,5-diphenyl-pyrrol-1-yl)-phenyl]-butyric acid], the “% Inhibition of Aβ42 Secretion @ 100 μM” value with Aβ42 secretion is 101% and 99% and 78%. For the same molecule, the IC50 with Aβ40 secretion (Homo sapiens) was greater than 100 µM; in the experiment with Aβ40 secretion, 67 µM.

`Cc1c(-c2ccccc2)cc(-c2ccccc2)n1-c1ccc(Cl)c(C(=O)O)c1` [Compound 3, 2-Chloro-5-(2-methyl-3,5-diphenyl-pyrrol-1-yl)-benzoic acid]: in the experiment on Aβ42 secretion (Homo sapiens), 37 µM corresponded to half-maximal inhibition (IC50) and the inhibition at 100 µM came out at 89%. In addition, in the experiment on Aβ40 secretion (Homo sapiens), the IC50 stood at 98 µM and the inhibition at 100 µM worked out at 52%.

As to `CCc1c(-c2ccccc2)cc(-c2ccccc2)n1-c1ccc(CCCC(=O)O)cc1` [Compound 13, 4-[4-(2-Ethyl-3,5-diphenyl-pyrrol-1-yl)-phenyl]-butyric acid], in the experiment on Aβ42 secretion (Homo sapiens), the IC50 amounted to 12 µM and the inhibition at 100 µM was found to be 83%. Further, in the experiment on Aβ40 secretion (Homo sapiens), the IC50 was greater than 100 µM and the inhibition at 100 µM was found to be 14%.

For the molecule `O=C(O)CCCc1ccc(-n2cc(-c3ccccc3)cc2-c2ccccc2)cc1` [Compound 7, 4-[4-(2,4-Diphenyl-pyrrol-1-yl)-phenyl]-butyric acid], in the experiment on Aβ42 secretion (Homo sapiens), the IC50 is 52 µM and the inhibition at 100 µM is 76%. Further, in the experiment with Aβ40 secretion (Homo sapiens), the IC50 is greater than 100 µM and the inhibition at 100 µM turned out to be 7%.

Turning to `CCc1c(-c2ccccc2)cc(-c2ccccc2)n1-c1cccc(C(=O)O)c1` [Compound 11, 3-(2-Ethyl-3,5-diphenyl-pyrrol-1-yl)-benzoic acid], in the experiment on Aβ42 secretion (Homo sapiens), the inhibition at 100 µM amounted to 92%. The “% Inhibition of Aβ42 Secretion @ 100 μM” value with Aβ42 secretion was 94% and 78%. Further, the IC50 in the experiment with Aβ40 secretion (Homo sapiens) is greater than 100 µM; in the experiment with Aβ40 secretion it was 69 µM and 68 µM.

Regarding `Cc1c(-c2cccc(C(F)(F)F)c2)cc(-c2ccccc2)n1-c1ccc(CCCC(=O)O)cc1` [Compound 10, 4-{4-[2-Methyl-5-phenyl-3-(3-trifluoromethyl-phenyl)-pyrrol-1-yl]-phenyl}-butyric acid], the IC50 in the experiment on Aβ42 secretion (Homo sapiens) was 15 µM; with Aβ40 secretion (Homo sapiens) it was 11 µM. For the same molecule, the inhibition at 100 µM amounted to 79% with Aβ42 secretion (Homo sapiens) and 97% in the experiment with Aβ40 secretion (Homo sapiens).

Regarding `CCOC(=O)c1cc(CCc2ccccc2)n(-c2cccc(C(=O)O)c2)c1-c1ccccc1` [Compound 20, 1-(3-Carboxy-phenyl)-5-phenethyl-2-phenyl-1H-pyrrole-3-carboxylic acid ethyl ester], in the experiment with Aβ42 secretion (Homo sapiens), the IC50 was 21 µM and the inhibition at 100 µM came to 95%. In the experiment with Aβ40 secretion (Homo sapiens), the IC50 is greater than 100 µM and the inhibition at 100 µM is 49%.

For the molecule `COc1ccc(C(=O)O)cc1-n1c(-c2ccccc2)cc(-c2ccccc2)c1C` [Compound 4, 4-Methoxy-3-(2-methyl-3,5-diphenyl-pyrrol-1-yl)-benzoic acid], in the experiment with Aβ42 secretion (Homo sapiens), the midpoint of inhibition, the IC50, lay at 29 µM and the inhibition at 100 µM was 84%. Also, in the experiment with Aβ40 secretion (Homo sapiens), the IC50 is greater than 100 µM and the inhibition at 100 µM amounted to 22%.

Take `CC(C)c1c(-c2ccccc2)cc(-c2ccccc2)n1-c1cccc(C(=O)O)c1` [Compound 30, 3-(2-Isopropyl-3,5-diphenyl-pyrrol-1-yl)-benzoic acid]: the IC50 is 15 µM in the experiment on Aβ42 secretion (Homo sapiens) and 22 µM with Aβ40 secretion (Homo sapiens). Further, the inhibition at 100 µM in the experiment on Aβ42 secretion (Homo sapiens) is 99%; in the experiment on Aβ40 secretion (Homo sapiens), 101%.

On to `Cc1c(-c2cccc(C(F)(F)F)c2)cc(-c2ccccc2)n1-c1cccc(C(=O)O)c1` [Compound 8, 3-[2-Methyl-5-phenyl-3-(3-trifluoromethyl-phenyl)-pyrrol-1-yl]-benzoic acid], for which, in the experiment with Aβ42 secretion (Homo sapiens), the inhibition at 100 µM is 94%. The “% Inhibition of Aβ42 Secretion @ 100 μM” value with Aβ42 secretion is 80%. In addition, the “% Inhibition of Aβ40 Secretion @ 100 μM” value in the experiment with Aβ40 secretion is 88% and 64%.
